The values below come from patent publication US11597702B2, “Substituted pyrazoles FFA4/GPR120 receptor agonists” (AXXAM S.P.A., priority 2018, dated 2023).

The target of the experiment is T1, GPR120 (Homo sapiens, UniProt Q5NUL3).
T1 construct: expressed in transfected cells; host or cells: CHO mitoPhotinaGPR120 cells
T1 sequence (Q5NUL3 1-361): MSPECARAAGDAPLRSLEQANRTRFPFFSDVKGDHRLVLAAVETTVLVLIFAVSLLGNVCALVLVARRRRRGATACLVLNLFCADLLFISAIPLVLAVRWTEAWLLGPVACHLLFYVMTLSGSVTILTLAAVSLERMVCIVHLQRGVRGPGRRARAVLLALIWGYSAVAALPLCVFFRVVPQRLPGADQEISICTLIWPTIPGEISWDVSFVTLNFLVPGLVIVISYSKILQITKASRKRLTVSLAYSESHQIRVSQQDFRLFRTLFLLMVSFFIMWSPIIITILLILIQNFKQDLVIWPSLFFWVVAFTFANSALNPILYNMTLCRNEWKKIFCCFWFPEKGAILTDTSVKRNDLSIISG
Nature of the experiment: GPR120 agonism in CHO mitoPhotinaGPR120 cell based assay with fluorescent (Fluo-8 calcium, FLIPRTetra) readout, Agonist Mode, dose response. To be noted: CHO mitoPhotinaGPR120 cells, Fluo-8 No Wash Ca2+ dye, dose response in quadruplicate, 0.0033% fatty acid free BSA.

The EC50 is the concentration needed to bring the measured effect to its halfway point. As for `Cc1ccc(-n2nc(C)c(C#N)c2COc2ccc(CCCO)cc2)nc1` [Example 156, 5-[[4-(3-hydroxypropyl)phenoxy]methyl]-3-methyl-1-(5-methyl-2-pyridyl)pyrazole-4-carbonitrile], the EC50 amounted to 0.19 µM.

In the case of `COc1ccc(-n2nc(C)c(C#N)c2COc2ccc(CCCO)cc2)nc1` [Example 157, 5-[[4-(3-hydroxypropyl)phenoxy]methyl]-1-(5-methoxy-2-pyridyl)-3-methyl-pyrazole-4-carbonitrile], the EC50 was 0.28 µM. With `Cc1nn(-c2ccccn2)c(COc2c(F)cc(CCCO)cc2F)c1C#N` [Example 158, 5-[[2,6-difluoro-4-(3-hydroxypropyl)phenoxy]methyl]-3-methyl-1-(2-pyridyl)pyrazole-4-carbonitrile], the EC50 was 0.13 µM.

Take `Cc1ccc(-n2nc(C)c(C#N)c2COc2c(F)cc(CCCO)cc2F)cc1` [Example 159, 5-[[2,6-difluoro-4-(3-hydroxypropyl)phenoxy]methyl]-3-methyl-1-(p-tolyl)pyrazole-4-carbonitrile]: the EC50 was 0.19 µM.

Take `CCc1ccc(-n2nc(C)c(C#N)c2COc2c(F)cc(CCCO)cc2F)cc1` [Example 160, 5-[[2,6-difluoro-4-(3-hydroxypropyl)phenoxy]methyl]-1-(4-ethylphenyl)-3-methyl-pyrazole-4-carbonitrile]: the EC50 was 0.3 µM. On to `COc1ccc(-n2nc(C)c(C#N)c2COc2c(F)cc(CCCO)cc2F)cc1` [Example 161, 5-[[2,6-difluoro-4-(3-hydroxypropyl)phenoxy]methyl]-1-(4-methoxyphenyl)-3-methyl-pyrazole-4-carbonitrile], for which the EC50 was found to be 0.23 µM. The result for `Cc1nn(-c2ccc(Cl)cc2)c(COc2c(F)cc(CCCO)cc2F)c1C#N` [Example 162, 1-(4-chlorophenyl)-5-[[2,6-difluoro-4-(3-hydroxypropyl)phenoxy]methyl]-3-methyl-pyrazole-4-carbonitrile] reads 0.43 µM; that for `Cc1nn(C2CCCC2)c(COc2c(F)cc(CCCO)cc2F)c1C#N` [Example 163, 1-cyclopentyl-5-[[2,6-difluoro-4-(3-hydroxypropyl)phenoxy]methyl]-3-methyl-pyrazole-4-carbonitrile], 0.099 µM. As to `Cc1nn(-c2ccc(F)cn2)c(COc2c(F)cc(CCCO)cc2F)c1C#N` [Example 164, 5-[[2,6-difluoro-4-(3-hydroxypropyl)phenoxy]methyl]-1-(5-fluoro-2-pyridyl)-3-methyl-pyrazole-4-carbonitrile], the EC50 came out at 0.19 µM. The result for `Cc1ccc(-n2nc(C)c(C#N)c2COc2c(F)cc(CCCO)cc2F)nc1` [Example 165, 5-[[2,6-difluoro-4-(3-hydroxypropyl)phenoxy]methyl]-3-methyl-1-(5-methyl-2-pyridyl)pyrazole-4-carbonitrile] reads 0.17 µM; that for `Cc1nn(-c2ccc(Cl)cn2)c(COc2c(F)cc(CCCO)cc2F)c1C#N` [Example 166, 1-(5-chloro-2-pyridyl)-5-[[2,6-difluoro-4-(3-hydroxypropyl)phenoxy]methyl]-3-methyl-pyrazole-4-carbonitrile], 0.22 µM; that for `COc1ccc(-n2nc(C)c(C#N)c2COc2c(F)cc(CCCO)cc2F)nc1` [Example 167, 5-[[2,6-difluoro-4-(3-hydroxypropyl)phenoxy]methyl]-1-(5-methoxy-2-pyridyl)-3-methyl-pyrazole-4-carbonitrile], 0.21 µM. The result for `COc1ccc(S(=O)(=O)Nc2c(C)cc(C)cc2C)cc1` [GSK137639A, reference compound] reads 4.48 µM.
